Experimental data from BindingDB's records for doi:10.1016/j.bmcl.2004.03.046 (Seoul National University, 2004).

Target: Tyrosinase (Agaricus bisporus)
Test: Inhibitory activity against mushroom tyrosinase

| Structure (SMILES) | IC50 [nM] |
| --- | --- |
| CC[C@H](C)[C@H](NC(=O)[C@H](Cc1c[nH]c2ccccc12)NC(=O)[C@H](Cc1ccccc1)NC(=O)OCc1cc(=O)c(O)co1)C(=O)O [2-[(S)-2-[(S)-2-(5-Hydroxy-4-oxo-4H-pyran-2-ylmethoxycarbonylamino)-3-phenyl-propionylamino]-3-(1H-indol-3-yl)-propionylamino]-3-(S)-methyl-pentanoic acid] | 2180 |
| O=C(N[C@@H](Cc1ccccc1)C(=O)N[C@@H](Cc1c[nH]c2ccccc12)C(=O)N[C@@H](Cc1c[nH]c2ccccc12)C(=O)O)OCc1cc(=O)c(O)co1 [2-[(S)-2-[(S)-2-(5-Hydroxy-4-oxo-4H-pyran-2-ylmethoxycarbonylamino)-3-phenyl-propionylamino]-3-(1H-indol-3-yl)-propionylamino]-3-(1H-indol-3-yl)-propionic acid] | 6170 |
| O=C(O)C[C@H](NC(=O)[C@H](Cc1c[nH]c2ccccc12)NC(=O)[C@H](Cc1ccccc1)NC(=O)OCc1cc(=O)c(O)co1)C(=O)O [2-[(S)-2-[(S)-2-(5-Hydroxy-4-oxo-4H-pyran-2-ylmethoxycarbonylamino)-3-phenyl-propionylamino]-3-(1H-indol-3-yl)-propionylamino]-succinic acid] | 2130 |
| O=C(N[C@@H](Cc1ccccc1)C(=O)N[C@@H](Cc1c[nH]c2ccccc12)C(=O)N[C@@H](Cc1ccccc1)C(=O)O)OCc1cc(=O)c(O)co1 [2-[(S)-2-[(S)-2-(5-Hydroxy-4-oxo-4H-pyran-2-ylmethoxycarbonylamino)-3-phenyl-propionylamino]-3-(1H-indol-3-yl)-propionylamino]-3-phenyl-propionic acid] | 4480 |

Now those with a lower IC50, led by results:

| IC50 [nM] | Structure (SMILES) |
| --- | --- |
| 390 | O=C(N[C@@H](Cc1ccccc1)C(=O)N[C@@H](Cc1ccc(O)cc1)C(=O)N[C@@H](Cc1ccc(O)cc1)C(=O)O)OCc1cc(=O)c(O)co1 [(S)-2-[(S)-2-[(S)-2-(5-Hydroxy-4-oxo-4H-pyran-2-ylmethoxycarbonylamino)-1-oxo-3-phenyl-propylamino]-3-(4-hydroxy-phenyl)-propionylamino]-3-(4-hydroxy-phenyl)-propionic acid] |
| 330 | O=C(N[C@@H](Cc1ccccc1)C(=O)N[C@@H](Cc1ccccc1)C(=O)N[C@@H](Cc1ccc(O)cc1)C(=O)O)OCc1cc(=O)c(O)co1 [(S)-2-{(S)-2-[(S)-2-(5-Hydroxy-4-oxo-4H-pyran-2-ylmethoxycarbonylamino)-1-oxo-3-phenyl-propylamino]-3-phenyl-propionylamino}-3-(4-hydroxy-phenyl)-propionic acid] |
